Target: human TYK2 (JH2domain-pseudokinase) (Homo sapiens (Human), UniProt P29597)
Assay: TYK2 JH2 Domain Binding Assay (KINOMEscan)
Details: Table 4, JH2 binding assay; read-out: JH2 Kd

Chain of human TYK2 (JH2domain-pseudokinase) (P29597 556-888): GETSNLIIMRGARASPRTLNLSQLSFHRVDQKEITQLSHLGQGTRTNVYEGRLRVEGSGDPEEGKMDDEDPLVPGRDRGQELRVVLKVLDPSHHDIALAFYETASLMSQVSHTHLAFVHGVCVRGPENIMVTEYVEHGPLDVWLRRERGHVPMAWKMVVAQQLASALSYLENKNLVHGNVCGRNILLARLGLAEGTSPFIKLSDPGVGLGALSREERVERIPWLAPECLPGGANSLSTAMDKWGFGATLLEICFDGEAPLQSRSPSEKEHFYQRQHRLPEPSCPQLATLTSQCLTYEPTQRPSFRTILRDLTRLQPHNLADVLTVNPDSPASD

SMILES | Kd
COc1c(Nc2cc(Nc3cc(C)ccn3)nc3[nH]n(C)c(=O)c23)cccc1-c1nnn(C)n1 [Compound I-5, 4-((2-methoxy-3-(2-methyl-2H-tetrazol-5-yl)phenyl)amino)-2-methyl-6-((4-methylpyridin-2-yl)amino)-1,2-dihydro-3H-pyrazolo[3,4-b]pyridin-3-one] | > 10 nM
COc1c(Nc2cc(Nc3cc(CO)ccn3)nc3[nH]n(C)c(=O)c23)cccc1-c1nnn(C)n1 [Compound I-6, 6-((4-(hydroxymethyl)pyridin-2-yl)amino)-4-((2-methoxy-3-(2-methyl-2H-tetrazol-5-yl)phenyl)amino)-2-methyl-1,2-dihydro-3H-pyrazolo[3,4-b]pyridin-3-one] | > 10 nM
COc1c(Nc2cc(Nc3cc(C)c(F)cn3)nc3[nH]n(C)c(=O)c23)cccc1-c1nnn(C)n1 [Compound I-8, 6-((5-fluoro-4-methylpyridin-2-yl)amino)-4-((2-methoxy-3-(2-methyl-2H-tetrazol-5-yl)phenyl)amino)-2-methyl-1,2-dihydro-3H-pyrazolo[3,4-b]pyridin-3-one] | < 0.1 nM
COc1c(Nc2cc(Nc3cc(C)nc(C)n3)nc3[nH]n(C)c(=O)c23)cccc1-c1nnn(C)n1 [Compound I-9, 6-((2,6-dimethylpyrimidin-4-yl)amino)-4-((2-methoxy-3-(2-methyl-2H-tetrazol-5-yl)phenyl)amino)-2-methyl-1,2-dihydro-3H-pyrazolo[3,4-b]pyridin-3-one] | < 0.1 nM
COc1c(Nc2cc(Nc3ccc(C)nn3)nc3[nH]n(C)c(=O)c23)cccc1-c1nnn(C)n1 [Compound I-10, 4-((2-methoxy-3-(2-methyl-2H-tetrazol-5-yl)phenyl)amino)-2-methyl-6-((6-methylpyridazin-3-yl)amino)-1,2-dihydro-3H-pyrazolo[3,4-b]pyridin-3-one] | < 0.1 nM
COc1c(Nc2cc(Nc3ccn(C)n3)nc3[nH]n(C)c(=O)c23)cccc1-c1nnn(C)n1 [Compound I-13, 4-((2-methoxy-3-(2-methyl-2H-tetrazol-5-yl)phenyl)amino)-2-methyl-6-((1-methyl-1H-pyrazol-3-yl)amino)-1,2-dihydro-3H-pyrazolo[3,4-b]pyridin-3-one] | < 0.1 nM

The remaining lines, values ahead:

Kd | SMILES
0.1 to 0.5 nM | COc1c(Nc2cc(Nc3ccc(C)cn3)nc3[nH]n(C)c(=O)c23)cccc1-c1nnn(C)n1 [Compound I-3, 4-((2-methoxy-3-(2-methyl-2H-tetrazol-5-yl)phenyl)amino)-2-methyl-6-((5-methylpyridin-2-yl)amino)-1,2-dihydro-3H-pyrazolo[3,4-b]pyridin-3-one]
0.1 to 0.5 nM | COc1c(Nc2cc(Nc3ccccn3)nc3[nH]n(C)c(=O)c23)cccc1-c1nnn(C)n1 [Compound I-4, 4-((2-methoxy-3-(2-methyl-2H-tetrazol-5-yl)phenyl)amino)-2-methyl-6-(pyridin-2-ylamino)-1,2-dihydro-3H-pyrazolo[3,4-b]pyridin-3-one]
1 to 10 nM | COc1c(Nc2cc(Nc3ccc(N4CCOCC4)cn3)nc3[nH]n(C)c(=O)c23)cccc1-c1nnn(C)n1 [Compound I-7, 4-((2-methoxy-3-(2-methyl-2H-tetrazol-5-yl)phenyl)amino)-2-methyl-6-((5-morpholinopyridin-2-yl)amino)-1,2-dihydro-3H-pyrazolo[3,4-b]pyridin-3-one]
> 10 nM | COc1c(Nc2cc(Nc3ccc(N4CCCCC4)cn3)nc3[nH]n(C)c(=O)c23)cccc1-c1nnn(C)n1 [Compound I-11, 4-((2-methoxy-3-(2-methyl-2H-tetrazol-5-yl)phenyl)amino)-2-methyl-6-((5-(piperidin-1-yl)pyridin-2-yl)amino)-1,2-dihydro-3H-pyrazolo[3,4-b]pyridin-3-one]
< 0.1 nM | COc1c(Nc2cc(Nc3ccc(C#N)cn3)nc3[nH]n(C)c(=O)c23)cccc1-c1nnn(C)n1 [Compound I-12, 6-((4-((2-methoxy-3-(2-methyl-2H-tetrazol-5-yl)phenyl)amino)-2-methyl-3-oxo-2,3-dihydro-1H-pyrazolo[3,4-b]pyridin-6-yl)amino)nicotinonitrile]
